Article PMC9848282, “Antinociceptive activity of doliroside B” (Pharmaceutical Biology, 2023)
“And” between values parts separate entries of the source, which are not always exact repeats. Identical values can stand only once.

Tests used:
TRPV1 channel = TRPV1 channel (Homo sapiens, UniProt Q8NER1); assay: cell-based; type: cell-based
[1] = system: acetic acid-induced writhing in Kunming mice; assay: Acetic acid-induced writhing test; type: in vivo; conditions: for ED50: Mus musculus, read-out: ED50 (median effective dose); for effect of NAL on the reduction of writhing number: absence vs presence of NAL 5 mg/kg i.p., MOP 1, IND 10, ASA 100, DB 5, DBDS 5 mg/kg, Figure 4; for fold weaker than DBDS (ED50): writhing test, ED50 compared with DBDS
[2] = system: hot plate-induced nociception in mice; assay: Eddy's hot plate test; type: in vivo
Method: Female Kunming mice (20 ± 2 g) from Chengdu Dossy Experiment Animal Co., Ltd. (Sichuan, China) were used for antinociceptive experiments. These animals were kept under a constant temperature (23 ± 1 °C), humidity (40–70%), airflow speed ([…]) and noise (≤ 60 db), and maintained under a 12 h light-dark cycle. After the experiment is completed, mice were euthanized humanely. All the animal experiments were approved by the Institutional Animal Care and Use Committee of Yunnan Minzu University (permit no. 20200608).
This was performed according to a previously reported procedure (Eddy and Leimbach [1953]). The pain threshold was defined as the duration from the beginning of placing mice on the plate to the mice jumping, licking, or shaking its paws. Because the scrotum of male mice is saggy, which can be stimulated by hot plate, healthy female mice with pain threshold less than 20 s were used for hot plate test. […] After administration of the test compounds, the pain threshold was recorded at 0, 30, 60, 90, and 120 min. Among the tests in the absence and presence of NAL (5 mg/kg), i.p. injection of NAL was performed 10 min before administration of testing compounds. […]

[3] = system: formalin-induced nociception in mice; assay: Formalin test; type: in vivo
Nav1.2 = Nav1.2 (Homo sapiens, UniProt Q99250); type: cell-based
NO production = assay: cells; type: cell-based; conditions: Mus musculus, RAW264.7; 25 µmol/L (positive control); LPS-stimulated, 24 h
[4] = hot plate test, absence vs presence of NAL 5 mg/kg i.p.
[5] = formalin test, absence vs presence of NAL 5 mg/kg i.p., MOP 1, IND 10, ASA 100, DB 20, DBDS 20 mg/kg, Figure 5

Chain of TRPV1 channel (Q8NER1 whole entry): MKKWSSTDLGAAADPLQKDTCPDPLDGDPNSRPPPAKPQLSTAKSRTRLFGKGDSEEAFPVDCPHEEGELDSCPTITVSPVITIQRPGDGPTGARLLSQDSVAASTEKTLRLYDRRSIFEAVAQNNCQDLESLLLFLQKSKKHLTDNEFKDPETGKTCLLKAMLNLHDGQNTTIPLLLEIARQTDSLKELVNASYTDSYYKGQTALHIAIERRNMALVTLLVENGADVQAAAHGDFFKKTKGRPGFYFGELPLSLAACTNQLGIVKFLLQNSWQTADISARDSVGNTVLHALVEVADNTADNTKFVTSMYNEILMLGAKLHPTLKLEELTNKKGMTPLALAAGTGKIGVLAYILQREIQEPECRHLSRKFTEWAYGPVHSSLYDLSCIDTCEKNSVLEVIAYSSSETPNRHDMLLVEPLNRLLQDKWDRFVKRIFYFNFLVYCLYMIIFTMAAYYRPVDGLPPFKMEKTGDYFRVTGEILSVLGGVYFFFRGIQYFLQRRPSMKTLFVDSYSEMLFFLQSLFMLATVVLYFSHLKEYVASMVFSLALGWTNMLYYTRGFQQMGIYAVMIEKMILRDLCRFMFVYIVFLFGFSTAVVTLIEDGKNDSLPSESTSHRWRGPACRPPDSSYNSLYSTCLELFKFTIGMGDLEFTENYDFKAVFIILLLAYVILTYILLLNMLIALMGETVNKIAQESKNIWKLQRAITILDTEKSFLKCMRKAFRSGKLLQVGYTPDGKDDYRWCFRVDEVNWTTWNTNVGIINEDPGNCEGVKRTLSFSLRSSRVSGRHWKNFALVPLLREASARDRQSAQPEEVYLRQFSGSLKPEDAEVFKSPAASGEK
Chain of Nav1.2 (Q99250 whole entry): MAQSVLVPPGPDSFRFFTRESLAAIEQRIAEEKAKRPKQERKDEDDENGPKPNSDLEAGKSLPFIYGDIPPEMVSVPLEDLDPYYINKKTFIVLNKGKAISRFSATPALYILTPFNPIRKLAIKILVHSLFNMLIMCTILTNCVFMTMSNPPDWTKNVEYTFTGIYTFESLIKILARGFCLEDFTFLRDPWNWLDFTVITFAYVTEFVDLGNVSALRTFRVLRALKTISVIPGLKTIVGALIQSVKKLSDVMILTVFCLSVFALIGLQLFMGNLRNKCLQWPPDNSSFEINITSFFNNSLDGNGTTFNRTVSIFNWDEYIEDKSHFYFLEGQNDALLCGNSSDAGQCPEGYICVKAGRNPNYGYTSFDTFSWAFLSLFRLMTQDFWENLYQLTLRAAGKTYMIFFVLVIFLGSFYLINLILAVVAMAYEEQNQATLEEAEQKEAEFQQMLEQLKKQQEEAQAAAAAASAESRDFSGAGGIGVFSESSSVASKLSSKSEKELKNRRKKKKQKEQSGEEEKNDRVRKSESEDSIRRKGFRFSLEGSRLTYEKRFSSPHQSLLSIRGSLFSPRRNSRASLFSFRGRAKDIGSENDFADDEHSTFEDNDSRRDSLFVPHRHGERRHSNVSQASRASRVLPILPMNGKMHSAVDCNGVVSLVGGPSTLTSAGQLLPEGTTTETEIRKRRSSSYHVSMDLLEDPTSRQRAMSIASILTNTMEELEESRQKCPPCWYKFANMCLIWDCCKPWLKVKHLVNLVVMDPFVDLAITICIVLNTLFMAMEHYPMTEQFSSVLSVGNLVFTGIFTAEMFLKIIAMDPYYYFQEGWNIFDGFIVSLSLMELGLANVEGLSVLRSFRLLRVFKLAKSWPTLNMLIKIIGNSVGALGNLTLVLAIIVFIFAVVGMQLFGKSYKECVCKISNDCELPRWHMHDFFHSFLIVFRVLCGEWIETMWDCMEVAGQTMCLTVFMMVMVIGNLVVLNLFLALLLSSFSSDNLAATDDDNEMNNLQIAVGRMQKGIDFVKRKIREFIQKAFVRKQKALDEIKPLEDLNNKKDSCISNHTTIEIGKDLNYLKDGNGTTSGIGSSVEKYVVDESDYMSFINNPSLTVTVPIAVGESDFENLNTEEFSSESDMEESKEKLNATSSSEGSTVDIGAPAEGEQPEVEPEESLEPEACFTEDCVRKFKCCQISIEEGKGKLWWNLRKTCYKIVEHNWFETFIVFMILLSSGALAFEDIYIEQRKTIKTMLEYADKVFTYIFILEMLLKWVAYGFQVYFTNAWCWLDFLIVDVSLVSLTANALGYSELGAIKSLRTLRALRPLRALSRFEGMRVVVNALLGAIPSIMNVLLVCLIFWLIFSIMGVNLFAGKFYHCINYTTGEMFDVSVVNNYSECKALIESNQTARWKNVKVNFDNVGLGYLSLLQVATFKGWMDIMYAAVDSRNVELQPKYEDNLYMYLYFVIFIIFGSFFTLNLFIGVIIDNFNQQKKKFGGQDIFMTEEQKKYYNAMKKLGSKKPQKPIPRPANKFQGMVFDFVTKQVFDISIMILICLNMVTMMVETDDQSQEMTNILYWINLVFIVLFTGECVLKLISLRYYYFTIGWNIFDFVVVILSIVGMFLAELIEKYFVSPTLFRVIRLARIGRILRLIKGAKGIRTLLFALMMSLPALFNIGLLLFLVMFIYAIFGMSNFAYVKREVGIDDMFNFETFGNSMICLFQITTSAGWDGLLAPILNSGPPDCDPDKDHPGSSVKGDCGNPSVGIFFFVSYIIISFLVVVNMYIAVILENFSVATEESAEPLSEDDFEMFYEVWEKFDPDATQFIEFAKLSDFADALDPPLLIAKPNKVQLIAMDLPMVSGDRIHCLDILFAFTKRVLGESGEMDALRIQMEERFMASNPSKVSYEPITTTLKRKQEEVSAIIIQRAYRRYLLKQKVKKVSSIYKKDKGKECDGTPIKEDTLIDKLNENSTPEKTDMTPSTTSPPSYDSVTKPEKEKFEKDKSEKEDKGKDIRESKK

## Oc1cc2c(cc1O)CN(C(=S)NCCc1ccc(Cl)cc1)CCC2 [capsazepine]
TRPV1 channel; TRPV1 inhibitor control
  IC50: 7.3 ± 0.06 µM

## COc1ccc2c(c1)c(CC(=O)O)c(C)n2C(=O)c1ccc(Cl)cc1 [IND, indomethacin]
[1]; 10 mg/kg oral, Figure 1(A) experiment
  inhibition of writhing number: 58.7%
[1]; 20 mg/kg, dose-response Figure 1(D)
  inhibition of writhing number: 76.1%
[1]; writhing test in mice
  ED50: 5.91 mg/kg
[1]
  effect of NAL on the reduction of writhing number: Only a minor difference
  fold weaker than DBDS (ED50): approximately 5 fold
[2]; 10 mg/kg, absence of NAL, 0 min, Table 2
  Pain threshold: 12.1 ± 2.9 s
[2]; 10 mg/kg, absence of NAL, 30 min, Table 2
  Pain threshold: 11.7 ± 3.0 s
[2]; 10 mg/kg, absence of NAL, 60 min, Table 2
  Pain threshold: 11.6 ± 2.2 s
[2]; 10 mg/kg, absence of NAL, 90 min, Table 2
  Pain threshold: 10.7 ± 2.1 s
[2]; 10 mg/kg, absence of NAL, 120 min, Table 2
  Pain threshold: 12.0 ± 3.2 s
[2]; 10 mg/kg, 0 min, Table 1
  Pain threshold: 11.3 ± 2.8 s
[2]; 10 mg/kg, 30 min, Table 1
  Pain threshold: 11.7 ± 3.4 s
[2]; 10 mg/kg, 60 min, Table 1
  Pain threshold: 12.5 ± 3.0 s
[2]; 10 mg/kg, 90 min, Table 1
  Pain threshold: 12.1 ± 2.9 s
[2]; 10 mg/kg, 120 min, Table 1
  Pain threshold: 10.9 ± 2.9 s
[2]; [4]
  effect of NAL on the antinociceptive effect: not effectively removed by NAL
[3]; [5]
  effect of NAL on the antinociceptive effect: not effectively removed by NAL
[3]; late phase (15-30 min), 10 mg/kg i.g.
  inhibition of licking time: 57.3%

## CN1CC[C@]23c4c5ccc(O)c4O[C@H]2[C@@H](O)C=C[C@H]3[C@H]1C5 [MOP, morphine]
[2]; mouse, in vivo
  effect of NAL on the antinociceptive effect: removed by NAL
[3]; mouse, in vivo
  effect of NAL on the antinociceptive effect: removed by NAL
[3]; mouse, in vivo, ip, 1 mg/kg
  inhibition of licking time: 55.3% and 75.9%

## NC1=N[C@H](O)[C@H]2[C@H]3O[C@]4(O)O[C@@H]([C@@H](O)[C@@]2(N1)[C@@H]4O)[C@]3(O)CO [TTX, Tetrodotoxin]
Nav1.2
  IC50: 0.016 ± 0.015 µM

## CC(=O)Oc1ccccc1C(=O)O [ASA, Acetylsalicylic acid]
[1]; 100 mg/kg oral, Figure 1(A) experiment
  inhibition of writhing number: 61.2%
[1]; 200 mg/kg, dose-response Figure 1(E)
  inhibition of writhing number: 73.3%
[1]; writhing test in mice
  ED50: 70.1 mg/kg
[1]
  effect of NAL on the reduction of writhing number: Only a minor difference
[2]; 100 mg/kg, absence of NAL, 30 min, Table 2
  Pain threshold: 20.3 ± 5.9 s
[2]; 100 mg/kg, absence of NAL, 60 min, Table 2
  Pain threshold: 19.8 ± 3.2 s
[2]; 100 mg/kg, absence of NAL, 90 min, Table 2
  Pain threshold: 14.1 ± 4.3 s
[2]; 100 mg/kg, 30 min, Table 1
  Pain threshold: 18.6 ± 5.2 s
[2]; 100 mg/kg, 60 min, Table 1
  Pain threshold: 17.8 ± 3.3 s
[2]; 100 mg/kg, 90 min, Table 1
  Pain threshold: 12.9 ± 4.0 s
[2]; 100 mg/kg, 120 min, Table 1
  Pain threshold: 10.6 ± 2.8 s
[2]; [4]
  effect of NAL on the antinociceptive effect: not effectively removed by NAL
[3]; [5]
  effect of NAL on the antinociceptive effect: not effectively removed by NAL
[3]; late phase (15-30 min), 100 mg/kg i.g.
  inhibition of licking time: 64.8%

## doliroside B [DB]
[1]; 5 mg/kg oral, dose-response Figure 1(B-D)
  inhibition of writhing number: 58.7%
[1]
  effect of NAL on the reduction of writhing number: Only a minor difference
  fold weaker than DBDS (ED50): ~4 fold
[1]; writhing test in mice
  ED50 (median effective dose): 4.68 mg/kg
[2]; 2.5 mg/kg, 0 min, Table 1
  Pain threshold: 12.0 ± 4.4 s
[2]; 2.5 mg/kg, 30 min, Table 1
  Pain threshold: 12.1 ± 3.7 s
[2]; 2.5 mg/kg, 60 min, Table 1
  Pain threshold: 12.7 ± 4.4 s
[2]; 2.5 mg/kg, 90 min, Table 1
  Pain threshold: 14.2 ± 4.7 s
[2]; 2.5 mg/kg, 120 min, Table 1
  Pain threshold: 12.4 ± 3.4 s
[2]; 5 mg/kg, 0 min, Table 1
  Pain threshold: 11.4 ± 2.9 s
[2]; 5 mg/kg, 30 min, Table 1
  Pain threshold: 12.0 ± 3.4 s
[2]; 5 mg/kg, 60 min, Table 1
  Pain threshold: 10.2 ± 2.9 s
[2]; 5 mg/kg, 90 min, Table 1
  Pain threshold: 12.6 ± 3.6 s
[2]; 5 mg/kg, 120 min, Table 1
  Pain threshold: 10.9 ± 3.7 s
[2]; 10 mg/kg, 0 min, Table 1
  Pain threshold: 10.4 ± 3.0 s
[2]; 10 mg/kg, 30 min, Table 1
  Pain threshold: 14.6 ± 4.9 s
[2]; 10 mg/kg, 60 min, Table 1
  Pain threshold: 16.4 ± 6.2 s
[2]; 10 mg/kg, 90 min, Table 1
  Pain threshold: 15.6 ± 4.2 s
[2]; 10 mg/kg, 120 min, Table 1
  Pain threshold: 12.6 ± 3.7 s
[2]; 20 mg/kg, absence of NAL, 0 min, Table 2
  Pain threshold: 11.8 ± 3.3 s
[2]; 20 mg/kg, absence of NAL, 30 min, Table 2
  Pain threshold: 19.6 ± 4.2 s
[2]; 20 mg/kg, absence of NAL, 60 min, Table 2
  Pain threshold: 21.7 ± 5.9 s
[2]; 20 mg/kg, absence of NAL, 90 min, Table 2
  Pain threshold: 18.0 ± 5.6 s
[2]; 20 mg/kg, absence of NAL, 120 min, Table 2
  Pain threshold: 15.2 ± 4.6 s
[2]; 20 mg/kg, 0 min, Table 1
  Pain threshold: 11.8 ± 3.3 s
[2]; 20 mg/kg, 30 min, Table 1
  Pain threshold: 18.8 ± 3.6 s
[2]; 20 mg/kg, 60 min, Table 1
  Pain threshold: 19.7 ± 5.3 s
[2]; 20 mg/kg, 90 min, Table 1
  Pain threshold: 18.1 ± 6.3 s
[2]; 20 mg/kg, 120 min, Table 1
  Pain threshold: 13.8 ± 4.2 s
[2]; [4]
  effect of NAL on the antinociceptive effect: not effectively removed by NAL
[3]; [5]
  effect of NAL on the antinociceptive effect: not effectively removed by NAL

## COc1cc(CNC(=O)CCCC/C=C/C(C)C)ccc1O [capsaicin]
TRPV1 channel; compound alone
  direct effect on TRPV1 activity (compound alone): induced a significant activation

## [H]/N=C(/NC)NCCC[C@H](N)C(=O)O [L-NMMA, NG-Monomethyl-L-arginine acetate]
NO production
  inhibition at 25 µM: 73%
